Test results reported in publication PMC4522657, “Identification of a DYRK1A Inhibitor that Induces Degradation of the Target Kinase using Co-chaperone CDC37 fused with Luciferase nanoKAZ” (Scientific Reports, 2015).

Columns and labels:
[1] = target: T1, 3xFLAG-DYRK1A (Homo sapiens, UniProt Q13627); assay: Western blot of 3xFLAG-DYRK1A level in transfected 293T cells; format: cell-based
T1 construct: F2A peptide linking to EGFP (2A skipping releases EGFP; a 2A remnant may stay on DYRK1A) (C); expressed in transfected cells; host or cells: 293T cells, transient
Experimental: To investigate whether DYRK1A is a client kinase of the CDC37/HSP90 system, we used a HSP90 inhibitor, ganetespib. 293T cells were transiently transfected with an expression vector of 3xFLAG-tagged DYRK1A (3xFLAG-DYRK1A). At 24 h after transfection, the cells were treated with ganetespib for the indicated time (0–8 h). Total cell lysates were collected and subjected to SDS-PAGE followed by Western blot analysis.
Figure 1 Ganetespib, a HSP90 inhibitor, decreases the DYRK1A protein level. 293T cells were transiently transfected with an expression vector for 3xFLAG-DYRK1A. At 24 h after transfection, the cells were treated with ganetespib (100 nM) and collected 0 and 8 h after treatment. Total cell lysates were subjected to SDS-PAGE followed by Western blot analysis using antibodies against FLAG and GAPDH. In the control group (DMSO), expression of 3xFLAG-DYRK1A increased at 8 h compared to 0 h, and ganetespib suppressed this increase of 3xFLAG-DYRK1A.
(§1) Western blot analysis was performed using the antibodies described above. In brief, total cell lysates were separated by SDS-PAGE (5–20% gels; ATTO, Tokyo, Japan) under reducing conditions and then transferred to a PVDF membrane (PALL, SP, Brazil). Antibody reactions were performed with Can Get Signal® Immunoreaction Enhancer Solution (Toyobo). Peroxidase activities on the membrane were visualized with ECL Western Blotting Detection Reagents (GE Healthcare) or ImmunoStar® LD (Wako Pure Chemical Industries, Osaka, Japan), and a ChemiDoc^TM MP Imaging System (Bio-Rad, Hercules, CA, USA).

[2] = target: T2, interaction of CDC37-nanoKAZ with 3xFLAG-DYRK1A (Y319F/Y321F) (Homo sapiens, UniProt Q13627, Y319F/Y321F); assay: CDC37-nanoKAZ binding assay (ELISA of the CDC37-nanoKAZ interaction) in 293T cells; format: cell-based; settings: for EC50: 293T cells stably expressing CDC37-nanoKAZ, treated one hour, read-out: EC50, decrease of relative luminescence intensity; for antagonism of the CDC37-nanoKAZ interaction: result in words, Fig. 6c
T2 construct: F2A peptide linking to EGFP (2A skipping releases EGFP; a 2A remnant may stay on DYRK1A) (C); expressed in transfected cells; host or cells: 293T cells stably expressing CDC37-nanoKAZ, transiently transfected with pcDNA5/FRT/TO 3xFLAG-DYRK1A (Y319F/Y321F)
Experimental: The cells were then treated with the indicated concentrations of small molecules for one hour. Cell lysates were added to FLAG antibody-coated 96-well plates and luminescence intensities were measured. The amount of bound 3xFLAG-DYRK1A was measured using a HRP-conjugated antibody against FLAG. The relative Imax for CDC37-nanoKAZ was normalized using the amount of bound protein.
Stable cell lines transfected with expression vectors for 3xFLAG-tagged DYRK family kinases and its mutants were lysed in ice-cold HENG buffer (50 mM HEPES-KOH, pH 7.9, 150 mM NaCl, 20 mM Na2MoO4, 2 mM EDTA, 5% Glycerol, 0.5% TritonX-100) containing protease inhibitor cocktail (Nacalai Tesque) on ice. […] The wells were wash three times with ice-cold HENG buffer and then a luminescence assay was performed.
(§2) The luminescence activity of the cell lysates was determined using a Centro LB 960 Microplate Luminometer (Berthold Technologies, Bad Wildbad, Germany). A reaction mixture containing bis-coelenterazine (final concentration of 0.1–1 μg/100 μL) in PBS containing 0.02% Tween20 and 20 mM EDTA was injected. The luminescence intensity was recorded at 0.1 s intervals for 10 s or 10 min. The maximum luminescence intensity (Imax), represented in relative luminescence units (rlu), was used in the study.
After measuring the luminescence intensities, the wells were washed three times with HENG buffer, and incubated with HRP-conjugated anti-FLAG antibody diluted with PBS containing […] and 2% fetal bovine serum at 37 °C for one hour. After extensive washing, […] Super Sensitive One Component HRP Microwell Substrate (SurModics, Eden Prairie, MN, USA) was added into the well and the reaction was stopped with sulfuric acid. Absorbance at 450 nm was measured with ARVO X5 (PerkinElmer). The relative amount of protein bound on the well was estimated from the absorbance.
In Supporting Figure S1a, the values of Imax are shown in kinetics plots. In Figs 2c,e, 3c, S1d, S3, and S4, the relative luminescence intensities are shown as the fold-change in the Imax values of the samples relative to Imax with EGFP. In Figs 4, 5a,c and 6c, the relative luminescence intensities were normalized to the amount of the bound 3xFLAG-DYRK1A mutant and calculated as the fold-change relative to the value at 0 μM of the compounds.
Small molecules in our original synthetic chemical library, including unpublished small molecule inhibitors of DYRK1A and its structural derivatives (data not shown), were added to the 96-well plates containing the transfected cells at a final concentration of 4 μM. The cells were then processed as described above.

[3] = target: T3, endogenous DYRK1A (Homo sapiens, UniProt Q13627); assay: Western blot of endogenous DYRK1A protein in HEK293 cells; format: cell-based; settings: ganetespib 100 nM, 4 days
T3 construct: endogenous in cells; host or cells: HEK293
Experimental: We investigated whether CaNDY destabilizes DYRK1A as ganetespib does. […] Next we examined whether CaNDY decreased endogenous DYRK1A protein. HEK293 cells were cultured for 0–4 days with CaNDY (2 μM) and then subjected to SDS-PAGE followed by Western blot analysis using antibodies against DYRK1A and GAPDH. […] The treated cells were also subjected to reverse transcription followed by quantitative PCR analysis.
as §1

[4] = tested on: CDC37-nanoKAZ; assay: Luminescence activity of CDC37-nanoKAZ in total cell lysates; format: cell-based; settings: counter-test, same concentrations as interaction assay
Experimental: as §2
Targeting the DYRK1A/CDC37 complex
(a-d) Luminescence intensities of total cell lysates of cells treated with the indicated […]
Figure 4. Luminescence intensities at each concentration are shown as fold-changes relative to that at 0 nM. Points are means ± SD (n = 3).
(1 picture or pasted object on this page, not shown here)
Luminescence intensities of total cell lysates of cells treated with the indicated concentrations of CaNDY, as also used in Figure 5c. Luminescence intensities at each concentration are shown as fold-changes to that at 0 nM. Points are means ± SD (n = 3).

[5] = target: DYRK1A (Homo sapiens, UniProt Q13627); assay: In vitro kinase assay, substrate DYRKtide-F; format: biochemical; design: full-length human recombinant kinases were expressed using a baculovirus expression system as amino-terminal GST-fusion proteins; GST (N); purchased Carna Biosciences; host or cells: baculovirus expression system; settings: for inhibitory activity against recombinant DYRK1A: result in words, Fig. 6b
From the text: Detailed information on the assay conditions is available on the website of Carna Biosciences (http://www.carnabio.com/english/index.html; Kobe, Japan). In brief, full-length human recombinant kinases were expressed using a baculovirus expression system as amino-terminal GST-fusion proteins, and purified by glutathione-Sepharose chromatography. The GenBank accession numbers of DYRK1A, DYRK1B, DYRK2, and DYRK3 were NP_001387.2, NP_004705.1, NP_003574.1, and NP_003573.2. […] For each compound, a DMSO solution was diluted in assay buffer to yield a final concentration of 1% DMSO. After incubation for one hour at room temperature, substrate phosphorylation was analyzed by electrophoretic separation of the substrate and products using a Caliper LC3000 platform (Caliper Life Sciences, Mountain View, CA, USA). The phosphorylated product (P)/(P + substrate) ratio was calculated at each concentration of each small molecule and the percent inhibition was expressed relative to a control assay in the absence of the small molecule. […] The IC50 of each compound was calculated by interpolation on a log-concentration-response curve fitted with a four-parameter logistic equation.

Compound: CC(C)c1cc(-c2n[nH]c(=O)n2-c2ccc3c(ccn3C)c2)c(O)cc1O [ganetespib, reference compound]
- DYRK1A protein level ([1]; ganetespib 100 nM, 8 h, compared with DMSO): decreased the DYRK1A level
- EC50 [2]: 14 nM
- accumulation of endogenous DYRK1A [3]: prevented it
- inhibition of luminescence activity of CDC37-nanoKAZ [4]: did not inhibit

Compound: [H]/N=C1/NC(=O)C(=Cc2ccc3[nH]ccc3c2)S1 [PD0442]
- antagonism of the CDC37-nanoKAZ interaction [2]: did not antagonize the interaction
- inhibitory activity against recombinant DYRK1A [5]: weak inhibitory activity

Compound: CCN1/C(=C/C(C)=O)Sc2ccc(O)cc21 [INDY]
- inhibition of luminescence activity of CDC37-nanoKAZ [4]: did not inhibit

Compound: CC[C@H](C)[C@H](NC(=O)[C@H]([C@@H](C)CC)N(C)C(C)=O)C(=O)N[C@H](C(=O)N[C@@H](CC(C)C)C(=O)[C@@]1(C)CO1)[C@@H](C)O [epoxomicin]
- effect on CaNDY-mediated degradation of 3xFLAG-DYRK1A ([1]; 2 µM epoxomicin pre-treatment 1 h, then CaNDY 2 µM 8 h): partially prevented

Compound: COc1ccc2c(c1)[nH]c1c(C)nccc12 [harmine]
- inhibition of luminescence activity of CDC37-nanoKAZ [4]: did not inhibit

Compound: N=C1NC(=O)C(=Cc2ccc3c(c2)OCO3)S1 [PD0439]
- EC50 [2]: 573 nM
- IC50 ([5]; 25 μM ATP, 1 μM DYRKtide-F, read-out: IC50, substrate phosphorylation): 16.7 nM

Compound: O=C1NC(=S)S/C1=C\c1ccc2[nH]ccc2c1 [RD0440]
- antagonism of the CDC37-nanoKAZ interaction [2]: did not antagonize the interaction
- inhibitory activity against recombinant DYRK1A [5]: weak inhibitory activity
